Test results taken from patent US9586956B2, “Isoquinoline and naphthyridine derivatives” (Genentech, Inc., priority 2012, dated 2017).

Legend:
[1] = molecular target: T1, purified human MAP4K4 kinase domain (Homo sapiens, UniProt O95819); assay: MAP4K4 Inhibition Assay Protocol No. 1 (Caliper LabChip, moesin-derived peptide phosphorylation); format: biochemical; conditions: Assay 1; 1 nM enzyme, 10 uM ATP, 45 min
T1 construct: purified human MAP4K4 kinase domain
Summary of the method: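 1 nM enzyme with 1 uM 5-carboxyfluorescein-labelled moesin peptide and 10 uM ATP in 50 mM Hepes pH 7.2, 10 mM MgCl2, 2% DMSO, 45 min at room temperature, then EDTA stop. Phosphorylated fraction of peptide measured by microfluidic mobility shift; IC50 from four-parameter fit.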

[2] = molecular target: T1, purified human MAP4K4 kinase domain; assay: MAP4K4 Inhibition Assay Protocol No. 2 (Z'-LYTE FRET); format: biochemical; conditions: Assay 2; 1 nM enzyme, 10 uM ATP, 60 min
From the text: The kinase activity of purified human MAP4K4 kinase domain was monitored using Z'-LYTE™ technology from Invitrogen to determine inhibition constants (IC50) of small molecule inhibitors. The Z'-LYTE™ biochemical assay employs a fluorescence-based, coupled-enzyme format and is based on the differential sensitivity of phosphorylated and non-phosphorylated peptides to proteolytic cleavage. In the primary reaction, the kinase transfers the gamma-phosphate of ATP to a single tyrosine, serine or threonine residue in a synthetic FRET-peptide. In the secondary reaction, a site-specific protease recognizes and cleaves non-phosphorylated FRET-peptides. Phosphorylation of FRET-peptides suppresses cleavage by the Development Reagent. Cleavage disrupts FRET between the donor (i.e., coumarin) and acceptor (i.e., fluorescein) fluorophores on the FRET-peptide, whereas uncleaved, phosphorylated FRET-peptides maintain FRET. To determine inhibition constants (IC50), compounds were serially diluted in DMSO and added to 10 uL kinase reactions containing 1 nM purified MAP4K4 enzyme, 2 uM ser/thr7 Z'-LYTE™ substrate, 10 uMATP, 50 mM Hepes (pH 7.5), 10 mM MgCl2, 1 mM EGTA, 0.01% Brij-35, and 2% DMSO. Reactions were incubated at room temperature in Corning Black 384 well plates (Corning#3573) for 60 minutes and stopped by the addition of 5 uL of Z'-LYTE™ development reagent A and incubated at room temp for 60 minutes. The plate is then analyzed on Perkin Elmer Envision by FRET mode. The high ratio of coumarin/fluorescein represents 0% phosphorylation rate while low ratio of coumarin/fluorescein represents 100% phosphorylation rate. The following equations are used to determine extent of peptide phosphorylation or inhibition: […]

T1 sequence (O95819 25-289 limits assumed): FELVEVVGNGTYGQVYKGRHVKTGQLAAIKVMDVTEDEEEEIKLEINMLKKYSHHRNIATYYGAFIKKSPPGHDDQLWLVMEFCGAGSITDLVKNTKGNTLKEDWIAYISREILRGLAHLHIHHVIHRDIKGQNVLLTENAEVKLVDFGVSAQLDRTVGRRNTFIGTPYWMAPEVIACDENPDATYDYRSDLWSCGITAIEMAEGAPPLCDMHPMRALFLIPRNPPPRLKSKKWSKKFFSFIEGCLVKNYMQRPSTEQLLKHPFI

SMILES	IC50 [1]	IC50 [2]
CNCc1cnc(N)c2cc(-c3cccc(F)c3)ccc12 [Example 129, 7-(3-fluorophenyl)-4-(methylaminomethyl) isoquinolin-1-amine]	4.1 µM	3 µM
Nc1ncc(C(=O)NC(CO)CNC(=O)NC2CC2)c2ccc(-c3cccc(F)c3)cc12 (centres unmarked) [Example 130, 1-amino-N-[1-[(cyclopropyl-carbamoylamino)methyl]-2-hydroxy-ethyl]-7-(3-fluorophenyl) isoquinoline-4-carboxamide]	0.0609 µM	0.0665 µM
Nc1ncc(C(=O)NC2CN(C(=O)NC3CC3)C2)c2ccc(-c3cccc(F)c3)cc12 [Example 132, 1-amino-N-[1-(cyclopropyl-carbamoyl)azetidin-3-yl]-7-(3-fluorophenyl)isoquinoline-4-carboxamide]	0.18 µM	0.191 µM
CCNC(=O)NCC(CO)NC(=O)c1cnc(N)c2cc(-c3cccc(F)c3)ccc12 (centres unmarked) [Example 133, 1-amino-N-[1-[(ethylcarbamoyl-amino)methyl]-2-hydroxy-ethyl]-7-(3-fluorophenyl) isoquinoline-4-carboxamide]	0.0602 µM	0.0919 µM

More lines, in order of falling IC50 [1], values ahead:

IC50 [1]	IC50 [2]	SMILES
1.2 µM	0.756 µM	CCN1CC(NC(=O)c2cnc(N)c3cc(-c4cccc(F)c4)ccc23)C1 [Example 127, 1-amino-N-(1-ethylazetidin-3-yl)-7-(3-fluorophenyl) isoquinoline-4-carboxamide]
0.168 µM	0.174 µM	CCNC(=O)N1CC(NC(=O)c2cnc(N)c3cc(-c4cccc(F)c4)ccc23)C1 [Example 131, 1-amino-N-[1-(ethylcarbamoyl)azetidin-3-yl]-7-(3-fluorophenyl) isoquinoline-4-carboxamide]
0.0705 µM	0.0724 µM	COCC(=O)N1CC(NC(=O)c2cnc(N)c3cc(-c4cccc(F)c4)ccc23)C1 [Example 128, 1-amino-7-(3-fluorophenyl)-N-[1-(2-methoxyacetyl)azetidin-3-yl]isoquinoline-4-carboxamide]
